Toxic doses and inconclusive results are not listed. Rule for the calls: active = survival T/C of 150% or more; inactive = T/C below 125% in these data.
System: CD2F1 mice, L1210 leukemia ip, survival T/C
Assay: NCI In Vivo Anticancer Drug Screen. Data for tumor model L1210 Leukemia (intraperitoneal) in CD2F1 (CDF1) mice
Conditions: higher = longer survival
Procedure, shortened: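 Read-out first: treated-group measurement over vehicle-control measurement, expressed as a ratio. Animals bore a transplanted tumor line and were dosed with compound or vehicle.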

[1] = endpoint: mean survival time, dose: 50.0 mg/kg/injection, schedule: Q04DX003 (ip), vehicle: Klucel (hydroxypropylcellulose) (HPC)
[2] = endpoint: mean survival time, dose: 100.0 mg/kg/injection, schedule: Q04DX003 (ip), vehicle: Klucel (hydroxypropylcellulose) (HPC)
[3] = endpoint: mean survival time, dose: 200.0 mg/kg/injection, schedule: Q04DX003 (ip), vehicle: Klucel (hydroxypropylcellulose) (HPC)
[4] = endpoint: mean survival time, dose: 100.0 mg/kg/injection, schedule: Q04DX002 (ip), vehicle: saline with Tween-80
[5] = endpoint: mean survival time, dose: 200.0 mg/kg/injection, schedule: Q04DX002 (ip), vehicle: saline with Tween-80
[6] = endpoint: mean survival time, dose: 400.0 mg/kg/injection, schedule: Q04DX002 (ip), vehicle: saline with Tween-80
[7] = endpoint: mean survival time, dose: 100.0 mg/kg/injection, schedule: Q01DX009 (ip), vehicle: saline with Tween-80
[8] = endpoint: mean survival time, dose: 100.0 mg/kg/injection, schedule: Q04DX003 (ip), vehicle: saline with Tween-80
[9] = endpoint: mean survival time, dose: 200.0 mg/kg/injection, schedule: Q01DX009 (ip), vehicle: saline with Tween-80
[10] = endpoint: mean survival time, dose: 200.0 mg/kg/injection, schedule: Q04DX003 (ip), vehicle: saline with Tween-80
[11] = endpoint: mean survival time, dose: 400.0 mg/kg/injection, schedule: Q01DX009 (ip), vehicle: saline with Tween-80
[12] = endpoint: mean survival time, dose: 400.0 mg/kg/injection, schedule: Q04DX003 (ip), vehicle: saline with Tween-80
[13] = endpoint: mean survival time, dose: 100.0 mg/kg/injection, schedule: Q01DX009 (ip), vehicle: Klucel (hydroxypropylcellulose) (HPC)

Measured: T/C

CCOC(=O)C(CC(=O)O)=C1c2ccccc2-c2ccccc21
inactive: endpoint: mean survival time, dose: 25.0 mg/kg/injection, schedule: Q04DX003 (ip), vehicle: Klucel (hydroxypropylcellulose) (HPC) 96 % of control | [1] 93 % of control | [2] 87 % of control | [3] 93 % of control

O=C(O)c1ccccc1C(=O)Nc1cccc(Cl)c1
inactive: [2] 110 % of control | [3] 93 % of control | endpoint: mean survival time, dose: 400.0 mg/kg/injection, schedule: Q04DX003 (ip), vehicle: Klucel (hydroxypropylcellulose) (HPC) 98 % of control

COc1ccc(NC(=O)Nc2cc(OC)c(Cl)cc2OC)cc1
inactive: [4] 96 % of control | [5] 89 % of control | [6] 89 % of control

O=C1CCCc2ccc(Cl)cc21
inactive: endpoint: mean survival time, dose: 100.0 mg/kg/injection, schedule: Q04DX003 (ip), vehicle: saline 96 % of control | endpoint: mean survival time, dose: 200.0 mg/kg/injection, schedule: Q04DX003 (ip), vehicle: saline 97 % of control | endpoint: mean survival time, dose: 400.0 mg/kg/injection, schedule: Q04DX003 (ip), vehicle: saline 108 % of control

O=C1CCCCC1(c1ccccc1)c1ccccc1
inactive: [7] 101 % of control | [8] 101 % of control | [9] 97 % of control | [10] 99 % of control | [11] 98 % of control | [12] 97 % of control

COc1ccc(NC(=O)Nc2ccc(OC)cc2Cl)cc1
inactive: [4] 90 % of control | [5] 86 % of control | [6] 90 % of control

Nc1ncnc2sc3c(c12)CCCC3
inactive: [1] 96 % of control | [2] 100 % of control | [3] 91 % of control

Cc1ccc(S(=O)(=O)c2ccccc2)cc1
inactive: endpoint: mean survival time, dose: 100.0 mg/kg/injection, schedule: Q01DX009 (ip), vehicle: saline 88 % of control | endpoint: mean survival time, dose: 200.0 mg/kg/injection, schedule: Q01DX009 (ip), vehicle: saline 87 % of control | endpoint: mean survival time, dose: 400.0 mg/kg/injection, schedule: Q01DX009 (ip), vehicle: saline 92 % of control

C[C@@]12C(=O)OC(=O)[C@]1(C)[C@H]1CC[C@@H]2O1
inactive: endpoint: median survival time, dose: 0.06 mg/kg/injection, schedule: Q01DX009 (ip), vehicle: Klucel (hydroxypropylcellulose) (HPC) 110 % of control | endpoint: median survival time, dose: 0.12 mg/kg/injection, schedule: Q01DX009 (ip), vehicle: Klucel (hydroxypropylcellulose) (HPC) 102 % of control | endpoint: median survival time, dose: 0.25 mg/kg/injection, schedule: Q01DX009 (ip), vehicle: Klucel (hydroxypropylcellulose) (HPC) 103 % of control | endpoint: median survival time, dose: 0.5 mg/kg/injection, schedule: Q01DX009 (ip), vehicle: Klucel (hydroxypropylcellulose) (HPC) 104 % of control | endpoint: median survival time, dose: 1.0 mg/kg/injection, schedule: Q01DX009 (ip), vehicle: Klucel (hydroxypropylcellulose) (HPC) 92 % of control

Cc1ccc(S(=O)(=O)NCl)cc1
inactive: endpoint: mean survival time, dose: 25.0 mg/kg/injection, schedule: Q01DX009 (ip), vehicle: saline 89 % of control | endpoint: mean survival time, dose: 50.0 mg/kg/injection, schedule: Q01DX009 (ip), vehicle: saline 94 % of control

COC(=O)CCN(c1ccccc1)S(=O)(=O)c1ccc(C)cc1
inactive: [13] 98 % of control | endpoint: mean survival time, dose: 200.0 mg/kg/injection, schedule: Q01DX009 (ip), vehicle: Klucel (hydroxypropylcellulose) (HPC) 100 % of control | endpoint: mean survival time, dose: 400.0 mg/kg/injection, schedule: Q01DX009 (ip), vehicle: Klucel (hydroxypropylcellulose) (HPC) 98 % of control

O=C(O)CCC(=O)c1ccc([N+](=O)[O-])cc1
inactive: endpoint: mean survival time, dose: 100.0 mg/kg/injection, schedule: Q01DX001 (ip), vehicle: saline 101 % of control | endpoint: mean survival time, dose: 200.0 mg/kg/injection, schedule: Q01DX001 (ip), vehicle: saline 97 % of control | endpoint: mean survival time, dose: 400.0 mg/kg/injection, schedule: Q01DX001 (ip), vehicle: saline 97 % of control

CCOC(=O)CCOc1ccc(Cl)cc1
inactive: [7] 95 % of control | [8] 89 % of control | [9] 97 % of control | [10] 93 % of control | [11] 104 % of control | [12] 91 % of control

CC(=O)OC/C(=N\Nc1ccc([N+](=O)[O-])cc1[N+](=O)[O-])c1ccccc1
inactive: endpoint: mean survival time, dose: 3.13 mg/kg/injection, schedule: Q01DX001 (ip), vehicle: saline with Tween-80 107 % of control | endpoint: mean survival time, dose: 6.25 mg/kg/injection, schedule: Q01DX001 (ip), vehicle: saline with Tween-80 94 % of control | endpoint: mean survival time, dose: 100.0 mg/kg/injection, schedule: Q01DX001 (ip), vehicle: saline with Tween-80 86 % of control | endpoint: mean survival time, dose: 400.0 mg/kg/injection, schedule: Q01DX001 (ip), vehicle: saline with Tween-80 90 % of control

C=CCNC(=O)/C=C/C(=O)NCC=C
inactive: endpoint: mean survival time, dose: 25.0 mg/kg/injection, schedule: Q01DX009 (ip), vehicle: saline with Tween-80 97 % of control | endpoint: mean survival time, dose: 50.0 mg/kg/injection, schedule: Q01DX009 (ip), vehicle: saline with Tween-80 97 % of control | [7] 101 % of control | [8] 97 % of control

O=C(/C=C(\CN1CCCCC1)c1ccccc1)c1ccccc1
inactive: endpoint: mean survival time, dose: 25.0 mg/kg/injection, schedule: Q01DX009 (ip), vehicle: Klucel (hydroxypropylcellulose) (HPC) 95 % of control | endpoint: mean survival time, dose: 50.0 mg/kg/injection, schedule: Q01DX009 (ip), vehicle: Klucel (hydroxypropylcellulose) (HPC) 105 % of control | [13] 94 % of control

C=C1C(=O)OC2CC(C)C3C=CC(=O)C3CC12 (configuration not stated)
inactive: endpoint: mean survival time, dose: 0.5 mg/kg/injection, schedule: Q01DX009 (ip), vehicle: Klucel (hydroxypropylcellulose) (HPC) 106 % of control | endpoint: mean survival time, dose: 1.0 mg/kg/injection, schedule: Q01DX009 (ip), vehicle: Klucel (hydroxypropylcellulose) (HPC) 102 % of control | endpoint: mean survival time, dose: 18.75 mg/kg/injection, schedule: Q01DX009 (ip), vehicle: Klucel (hydroxypropylcellulose) (HPC) 105 % of control

Cc1[nH]c(=S)[nH]c(=O)c1CC(C)O (configuration not stated)
inactive: [7] 97 % of control | [9] 90 % of control | [11] 98 % of control

O=C(O)CC(NC(=O)OCc1ccccc1)C(=O)OCc1ccccc1 (configuration not stated)
inactive: [7] 93 % of control | [8] 104 % of control | [9] 96 % of control | [10] 100 % of control | [12] 87 % of control

Cc1ccc(C(C)C)cc1NC(=O)c1ccccc1C(=O)O
inactive: [8] 95 % of control | [10] 95 % of control | [12] 87 % of control
